Patent publication US10239873B2, “7-azaindole or 4,7-diazaindole derivatives as IKKϵ epsilon and TBK1 inhibitor and pharmaceutical composition comprising same” (GREEN CROSS CORPORATION, priority 2015, dated 2019)

What follows are molecules tested against T1, TBK1 (Homo sapiens, UniProt Q9UHD2) (assay: ADP-Glo Kinase Assay, inhibition activity on TBK1).
T1 construct: purchased Promega (Invitrogen is also named in the same bracket) V4158; PR8031B; V3991 (not assigned to the two kinases)
T1 sequence (Q9UHD2 1-729): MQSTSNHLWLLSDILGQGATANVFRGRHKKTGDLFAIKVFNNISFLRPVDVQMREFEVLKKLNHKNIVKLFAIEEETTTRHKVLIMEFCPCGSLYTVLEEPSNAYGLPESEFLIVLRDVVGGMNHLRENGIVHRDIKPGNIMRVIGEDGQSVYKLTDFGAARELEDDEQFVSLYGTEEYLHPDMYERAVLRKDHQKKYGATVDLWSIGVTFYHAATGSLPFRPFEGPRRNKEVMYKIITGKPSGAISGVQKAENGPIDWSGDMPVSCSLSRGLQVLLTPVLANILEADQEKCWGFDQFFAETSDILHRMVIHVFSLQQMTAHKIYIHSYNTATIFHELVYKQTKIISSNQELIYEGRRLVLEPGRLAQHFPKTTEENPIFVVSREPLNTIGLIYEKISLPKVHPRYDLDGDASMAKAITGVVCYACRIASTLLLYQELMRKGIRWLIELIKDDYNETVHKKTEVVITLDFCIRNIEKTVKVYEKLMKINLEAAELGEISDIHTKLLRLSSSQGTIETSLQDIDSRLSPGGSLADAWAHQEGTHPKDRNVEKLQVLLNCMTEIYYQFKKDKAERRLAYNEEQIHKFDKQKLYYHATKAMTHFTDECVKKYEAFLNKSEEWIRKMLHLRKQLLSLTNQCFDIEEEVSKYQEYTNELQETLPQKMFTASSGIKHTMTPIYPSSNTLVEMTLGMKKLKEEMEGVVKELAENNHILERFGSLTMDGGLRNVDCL
Format: biochemical
Procedure, shortened: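 Kinase activity measured with the ADP-Glo luminescent ADP-detection kit per manufacturer's protocol, using IKKε or TBK1 kinase enzyme systems. Reaction buffer: 40 mM Tris (pH 7.5), 20 mM MgCl2, 0.1 mg/mL BSA; luminescence read on a luminometer.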

**Q.** With `O=C(OC1CCCC1)N1CC=C(c2c[nH]c3ncc(-c4ccc(C(=O)N5CCOCC5)cc4)cc23)CC1` [Example 183, Cyclopentyl 4-(5-(4-(morpholine-4-carbonyl)phenyl)-1H-pyrrolo[2,3-b]pyridin-3-yl)-5,6-dihydropyridine-1(2H)-carboxylate] as the molecule, how does the IC50 read?
**A.** 39 nM

**Q.** How did the IC50 turn out when `O=C(OC1CCCC1)N1CC=C(c2c[nH]c3ncc(-c4cccc(C(=O)N5CCOCC5)c4)cc23)CC1` [Example 184, Cyclopentyl 4-(5-(3-(morpholine-4-carbonyl)phenyl)-1H-pyrrolo[2,3-b]pyridin-3-yl)-5,6-dihydropyridine-1(2H)-carboxylate] was run?
**A.** 100 nM

**Q.** For `O=C(OC1CCCC1)N1CC=C(c2c[nH]c3ncc(-c4csc(CN5CCOCC5)c4)cc23)CC1` [Example 185, Cyclopentyl 4-(5-(5-(morpholinomethyl)thiophen-3-yl)-1H-pyrrolo[2,3-b]pyridin-3-yl)-5,6-dihydropyridine-1(2H)-carboxylate], which IC50 is on record?
**A.** 81 nM

**Q.** Which IC50 does the source give for `O=C(OC1CCCC1)N1CC=C(c2c[nH]c3ncc(-c4ccc(CN5CCOCC5)s4)cc23)CC1` [Example 186, Cyclopentyl 4-(5-(5-(morpholinomethyl)thiophen-2-yl)-1H-pyrrolo[2,3-b]pyridin-3-yl)-5,6-dihydropyridine-1(2H)-carboxylate] here?
**A.** 160 nM

**Q.** For `COc1ccc(-c2cnc3[nH]cc(C4=CCCN(C(=O)OC(C)(C)C)CC4)c3c2)cc1OC` [Example 187, tert-Butyl 4-(5-(3,4-dimethoxyphenyl)-1H-pyrrolo[2,3-b]pyridin-3-yl)-2,3,6,7-tetrahydro-1H-azepine-1-carboxylate], which IC50 is on record?
**A.** 3300 nM

**Q.** Which IC50 does the source give for `COc1ccc(-c2cnc3[nH]cc(C4=CCN(C(=O)OC(C)(C)C)CCC4)c3c2)cc1OC` [Example 188, tert-Butyl 5-(5-(3,4-dimethoxyphenyl)-1H-pyrrolo[2,3-b]pyridin-3-yl)-2,3,4,7-tetrahydro-1H-azepine-1-carboxylate] here?
**A.** 4900 nM

**Q.** How did the IC50 turn out when `O=C(c1cccs1)N1CC=C(c2c[nH]c3ncc(-c4ccc(F)c(F)c4)cc23)CC1` [Example 189, (4-(5-(3,4-Difluorophenyl)-1H-pyrrolo[2,3-b]pyridin-3-yl)-5,6-dihydropyridin-1(2H)-yl)(thiophen-2-yl)methanone] was run?
**A.** > 10000 nM

**Q.** `COc1ccc(-c2cnc3[nH]cc(C4=CCN(C(=O)c5cccs5)CC4)c3c2)cc1OC` [Example 191, (4-(5-(3,4-Dimethoxyphenyl)-1H-pyrrolo[2,3-b]pyridin-3-yl)-5,6-dihydropyridin-1(2H)-yl)(thiophen-2-yl)methanone] was tested. Which IC50 did it give?
**A.** 110 nM

**Q.** How did the IC50 turn out when `COc1ccc(-c2cnc3[nH]cc(C4=CCN(C(=O)c5cccs5)CC4)c3c2)cc1F` [Example 192, (4-(5-(3-Fluoro-4-methoxyphenyl)-1H-pyrrolo[2,3-b]pyridin-3-yl)-5,6-dihydropyridin-1(2H)-yl)(thiophen-2-yl)methanone] was run?
**A.** 460 nM

**Q.** How did the IC50 turn out when `CS(=O)(=O)c1cccc(-c2cnc3[nH]cc(C4=CCN(C(=O)c5cccs5)CC4)c3c2)c1` [Example 193, (4-(5-(3-(Methylsulfonyl)phenyl)-1H-pyrrolo[2,3-b]pyridin-3-yl)-5,6-dihydropyridin-1(2H)-yl)(thiophen-2-yl)methanone] was run?
**A.** 36 nM

**Q.** How did the IC50 turn out when `CS(=O)(=O)c1ccc(-c2cnc3[nH]cc(C4=CCN(C(=O)c5cccs5)CC4)c3c2)cc1` [Example 194, (4-(5-(4-(methylsulfonyl)phenyl)-1H-pyrrolo[2,3-b]pyridin-3-yl)-5,6-dihydropyridin-1(2H)-yl)(thiophen-2-yl)methanone] was run?
**A.** > 10000 nM

**Q.** Which IC50 does the source give for `CCS(=O)(=O)c1cccc(-c2cnc3[nH]cc(C4=CCN(C(=O)c5cccs5)CC4)c3c2)c1` [Example 195, (4-(5-(3-(ethylsulfonyl)phenyl)-1H-pyrrolo[2,3-b]pyridin-3-yl)-5,6-dihydropyridin-1(2H)-yl)(thiophen-2-yl)methanone] here?
**A.** 61 nM

**Q.** Which IC50 does the source give for `O=C(c1cccs1)N1CC=C(c2c[nH]c3ncc(-c4ccc(S(=O)(=O)C5CC5)cc4)cc23)CC1` [Example 196, (4-(5-(4-(cyclopropylsulfonyl)phenyl)-1H-pyrrolo[2,3-b]pyridin-3-yl)-5,6-dihydropyridin-1(2H)-yl)(thiophen-2-yl)methanone] here?
**A.** 250 nM

**Q.** `NS(=O)(=O)c1ccc(-c2cnc3[nH]cc(C4=CCN(C(=O)c5cccs5)CC4)c3c2)cc1` [Example 197, 4-(3-(1-(thiophene-2-carbonyl)-1,2,3,6-tetrahydropyridin-4-yl)-1H-pyrrolo[2,3-b]pyridin-5-yl)benzensulfonamide] was tested. Which IC50 did it give?
**A.** 28 nM

**Q.** How did the IC50 turn out when `NS(=O)(=O)c1cccc(-c2cnc3[nH]cc(C4=CCN(C(=O)c5cccs5)CC4)c3c2)c1` [Example 198, 3-(3-(1-(thiophene-2-carbonyl)-1,2,3,6-tetrahydropyridin-4-yl)-1H-pyrrolo[2,3-b]pyridin-5-yl)benzensulfonamide] was run?
**A.** 15 nM

**Q.** For `CNS(=O)(=O)c1cccc(-c2cnc3[nH]cc(C4=CCN(C(=O)c5cccs5)CC4)c3c2)c1` [Example 199, N-methyl-3-(3-(1-(thiophene-2-carbonyl)-1,2,3,6-tetrahydropyridin-4-yl)-1H-pyrrolo[2,3-b]pyridin-5-yl)benzensulfonamide], which IC50 is on record?
**A.** 34 nM

**Q.** `CNS(=O)(=O)c1ccc(-c2cnc3[nH]cc(C4=CCN(C(=O)c5cccs5)CC4)c3c2)cc1` [Example 200, N-methyl-4-(3-(1-(thiophene-2-carbonyl)-1,2,3,6-tetrahydropyridin-4-yl)-1H-pyrrolo[2,3-b]pyridin-5-yl)benzensulfonamide] was tested. Which IC50 did it give?
**A.** 45 nM

**Q.** For `CS(=O)(=O)Nc1cccc(-c2cnc3[nH]cc(C4=CCN(C(=O)c5cccs5)CC4)c3c2)c1` [Example 201, N-(3-(3-(1-(thiophene-2-carbonyl)-1,2,3,6-tetrahydropyridin-4-yl)-1H-pyrrolo[2,3-b]pyridin-5-yl)phenyl)methansulfonamide], which IC50 is on record?
**A.** > 10000 nM

**Q.** With `O=C(c1cccs1)N1CC=C(c2c[nH]c3ncc(-c4cccc(S(=O)(=O)N5CCOCC5)c4)cc23)CC1` [Example 202, (4-(5-(3-(morpholinosulfonyl)phenyl)-1H-pyrrolo[2,3-b]pyridin-3-yl)-5,6-dihydropyridin-1(2H)-yl)(thiophen-2-yl)methanone] as the molecule, how does the IC50 read?
**A.** 230 nM

**Q.** With `COc1ccc(-c2cnc3[nH]cc(C4=CCN(C(=O)c5cccs5)CC4)c3c2)cc1S(=O)(=O)N1CCOCC1` [Example 203, (4-(5-(4-methoxy-3-(morpholinosulfonyl)phenyl)-1H-pyrrolo[2,3-b]pyridin-3-yl)-5,6-di hydropyridin-1(2H)-yl)(thiophen-2-yl)methanone] as the molecule, how does the IC50 read?
**A.** 39 nM

**Q.** How did the IC50 turn out when `O=C(c1cccs1)N1CC=C(c2c[nH]c3ncc(-c4ccc(CN5CCOCC5)s4)cc23)CC1` [Example 206, (4-(5-(5-(morpholinomethyl)thiophen-2-yl)-1H-pyrrolo[2,3-b]pyridin-3-yl)-5,6-dihydropyridin-1(2H)-yl)(thiophen-2-yl)methanone] was run?
**A.** 49 nM

**Q.** With `O=C(c1cccs1)N1CC=C(c2c[nH]c3ncc(-c4csc(CN5CCOCC5)c4)cc23)CC1` [Example 207, (4-(5-(5-(morpholinomethyl)thiophen-3-yl)-1H-pyrrolo[2,3-b]pyridin-3-yl)-5,6-dihydropyridin-1(2H)-yl)(thiophen-2-yl)methanone] as the molecule, how does the IC50 read?
**A.** 48 nM

**Q.** With `O=C(c1cccc(-c2cnc3[nH]cc(C4=CCN(C(=O)c5cccs5)CC4)c3c2)c1)N1CCOCC1` [Example 208, (4-(5-(3-(morpholine-4-carbonyl)phenyl)-1H-pyrrolo[2,3-b]pyridin-3-yl)-5,6-dihydropyridin-1(2H)-yl)(thiophen-2-yl)methanone] as the molecule, how does the IC50 read?
**A.** 190 nM

**Q.** For `COc1ccc(-c2cnc3[nH]cc(C4=CCN(C(=O)c5ccc(C)s5)CC4)c3c2)cc1OC` [Example 210, (4-(5-(3,4-dimethoxyphenyl)-1H-pyrrolo[2,3-b]pyridin-3-yl)-5,6-dihydropyridin-1(2H)-yl)(5-methylthiophen-2-yl)methanone], which IC50 is on record?
**A.** 3000 nM

**Q.** With `Cc1ccc(C(=O)N2CC=C(c3c[nH]c4ncc(-c5ccc(S(C)(=O)=O)cc5)cc34)CC2)s1` [Example 211, (4-(5-(4-(methylsulfonyl)phenyl)-1H-pyrrolo[2,3-b]pyridin-3-yl)-5,6-dihydropyridin-1(2H)-yl)(5-methylthiophen-2-yl)methanone] as the molecule, how does the IC50 read?
**A.** 3500 nM

**Q.** For `Cc1ccc(C(=O)N2CC=C(c3c[nH]c4ncc(-c5ccc(S(N)(=O)=O)cc5)cc34)CC2)s1` [Example 212, 4-(3-(1-(5-methylthiophene-2-carbonyl)-1,2,3,6-tetrahydropyridin-4-yl)-1H-pyrrolo[2,3-b]pyridin-5-yl)benzensulfonamide], which IC50 is on record?
**A.** 2600 nM

**Q.** How did the IC50 turn out when `COc1ccc(-c2cnc3[nH]cc(C4=CCN(C(=O)c5cccs5)CC4C)c3c2)cc1OC` (stereo not drawn) [Example 213, (4-(5-(3,4-dimethoxyphenyl)-1H-pyrrolo[2,3-b]pyridin-3-yl)-5-methyl-5,6-dihydropyridin-1(2H)-yl)(thiophen-2-yl)methanone] was run?
**A.** 180 nM
